Where two headings read alike, the source gives them in different places. Numbered stars: 1 amine (or outer) side, 2 acyl side, 3 side chain; on linkers, the order of the positions; unused ones are H or OH. Square brackets hold non-standard residues; d marks the D form. Side chains are listed from the residue outwards. Peptide text beside a SMILES is read from it. * marks the point of attachment. X4 = O=C(O)CCCCCCCCCCCCCCCCCCC(=O)N1CCC(C(=O)N[C@@H](CCC(=O)NCCCOCCOCCOCCCN*)C(=O)O)CC1; C20 diacid = O=C(O)CCCCCCCCCCCCCCCCCCC(=O)*; γGlu = O=C(O)[C@H](CCC(=O)[*:2])N[*:1]; εLys = N[C@@H](CCCCN[*:1])C(=O)[*:2]; Trx = NC[C@H]1CC[C@H](C(=O)O)CC1; Suc = O=C(CCC(=O)[*:2])[*:1]; AEEA = NCCOCCOCC(=O)O; Aib = CC(C)(N)C(=O)O
Assays:
human GLP-1 receptor [1] = target: T1, human GLP-1 receptor (Homo sapiens, UniProt P43220); experiment: In vitro potency, CRE luciferase reporter gene assay in BHK cells expressing the human GLP-1 receptor; assay type: cell-based; conditions: whole cell reporter gene assay, 3 h incubation, no HSA, averages of at least two replicates
T1 construct: expressed in transfected cells; host or cells: membranes prepared from BHK cells (parent line BHKTS13), clone FCW467-12A
Method in brief: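 Stably transfected BHK cells (5×10^3/well) expressing human GLP-1R with a CRE-luciferase reporter; compounds diluted in buffer with 2% ovalbumin and 0.2% Pluronic F-68, final 1×10^−7 to 1×10^−14 M. Incubated 3 h at 37 °C, 5% CO2, then luminescence read; potency from non-linear log(agonist)–response fit, mean of ≥2 replicates.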

human GLP-1 receptor [2] = target: T1, human GLP-1 receptor; experiment: GLP-1 receptor binding, competitive binding assay (125I-GLP-1, SPA) on isolated membranes;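 also: test compounds added at a range of concentrations to membranes from cells expressing the human GLP-1 receptor, scored by displacement of labelled ligand, read with WGA SPA beads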
Description: The purpose of this example is to test the receptor binding of the GLP-1 derivatives in vitro. The receptor binding is a measure of affinity of a derivative for the human GLP-1 receptor.
In this type of assay a labelled ligand (in this case ^125I-GLP-1) is bound to the receptor. Each derivative is added in a series of concentrations to isolated membranes containing the human GLP-1 receptor and displacement of the labelled ligand is monitored. The receptor binding is reported as the concentration at which half of the labelled ligand is displaced from the receptor, the IC50 value.
The following chemicals were used in the assay: Human serum albumin (HSA) (Sigma A1653), DMEM w/o phenol red (Gibco 11880-028), Pen/strep (Invitrogen 15140-122), G418 (Invitrogen 10131-027), 1 M Hepes (Gibco 15630), EDTA (Invitrogen 15575-038), PBS (Invitrogen 14190-094), fetal calf serum (Invitrogen 16140-071), EGTA, MgCl2 (Merck 1.05832.1000), Tween 20 (Amresco 0850C335), SPA particles (wheat germ agglutinin (WGA) SPA beads, Perkin Elmer RPNQ0001), [^125I]-GLP-1]-(7-36)NH2 (produced in-house), OptiPlate™-96 (Packard 6005290).
Buffer 1 consisted of 20 mM Na-HEPES plus 10 mM EDTA and pH was adjusted to 7.4. Buffer 2 consisted of 20 mM Na-HEPES plus 0.1 mM EDTA and pH was adjusted to 7.4. Assay buffer consisted of 50 mM HEPES supplemented with 5 mM EGTA, 5 mM MgCl2, 0.005% Tween 20 and pH was adjusted to 7.4. An 8% albumin stock consisted of HSA dissolved at 8% (w/v) in assay buffer. An 0.02% albumin stock consisted of HSA dissolved at 0.02% (w/v) in assay buffer.
The cells express the human GLP-1 receptor.
The cells were grown at 5% CO2 in DMEM, 10% fetal calf serum, 1% Pen/Strep (Penicillin/Streptomycin) and 1.0 mg/ml of the selection marker G418.
To make a membrane preparation the cells were grown to approximately 80% confluence. The cells were washed twice in phosphate-buffered saline and harvested. The cells were pelleted using a brief centrifugation and the cell pellet was kept on ice. The cell pellet was homogenised with ULTRA-THURRAX™ dispersing instrument for 20-30 seconds in a suitable amount of buffer 1 (e.g., 10 ml). The homogenate was centrifuged for 15 minutes. The pellet was re-suspended (homogenised) in 10 ml buffer 2 and centrifuged. This step was repeated once more. The resulting pellet was re-suspended in buffer 2 and the protein concentration was determined. The membranes were aliquoted and stored at minus 80° C.
For the receptor binding assay in the presence of low HSA (0.005%) 50 μl of the assay buffer was added to each well of an assay plate.
For the receptor binding assay in the presence of high HSA (2%) 50 μl of the 8% albumin stock was added to each well of an assay plate.
Cell membrane aliquots were thawed and diluted to their working concentration. Fifty μl were added to each well in the assay plate.
WGA SPA beads were suspended in assay buffer at 20 mg/ml. The suspension was diluted to 10 mg/ml in assay buffer just prior to addition to the assay plate. Fifty μl were added to each well in the assay plate.
The incubation was started by adding 25 μl of 480 pM solution of [^125I]-GLP-1]-(7-36)NH2 to each well of the assay plate. A 25 μl aliquot was reserved for measuring total counts/well.
The assay plate was incubated for 2 h at 30° C.
The assay plate was centrifuged for 10 min.
The assay plate was read in a Packard TopCount NXT instrument.
The data from the TopCount instrument were transferred to GraphPad Prism software. The software averaged the values for the replicates and performed a non-linear regression. IC50 values were calculated by the software and reported in nM.

[3] = High HSA IC50 (nM), high serum albumin (2.0% HSA final assay concentration)
[4] = Low HSA IC50 (nM), low serum albumin (max. 0.001% final assay concentration)

T1 sequence (P43220 24-463): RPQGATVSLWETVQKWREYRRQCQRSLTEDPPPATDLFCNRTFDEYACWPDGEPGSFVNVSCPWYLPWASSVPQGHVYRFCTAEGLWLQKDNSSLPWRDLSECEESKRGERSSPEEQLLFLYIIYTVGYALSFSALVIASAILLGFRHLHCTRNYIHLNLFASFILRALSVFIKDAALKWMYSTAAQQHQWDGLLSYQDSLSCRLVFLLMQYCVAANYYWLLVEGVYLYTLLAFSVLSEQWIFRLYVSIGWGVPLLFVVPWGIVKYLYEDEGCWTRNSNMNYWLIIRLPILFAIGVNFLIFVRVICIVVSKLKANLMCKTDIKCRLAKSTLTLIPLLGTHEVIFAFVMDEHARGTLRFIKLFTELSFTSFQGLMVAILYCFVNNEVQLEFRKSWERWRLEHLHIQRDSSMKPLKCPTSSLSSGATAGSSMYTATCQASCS

IC50 (human GLP-1 receptor [2]; high serum albumin (2.0% HSA final assay concentration), read-out: High HSA IC50) [nM]	IC50 (human GLP-1 receptor [2]; low serum albumin (max. 0.001% final assay concentration), read-out: Low HSA IC50) [nM]	Compound	EC50 (human GLP-1 receptor [1]) [nM]	IC50 (human GLP-1 receptor [2]; [3]) [nM]	IC50 (human GLP-1 receptor [2]; [4]) [nM]
30	0.05	CC[C@H](C)[C@H](NC(=O)[C@H](Cc1ccccc1)NC(=O)[C@H](CCC(=O)O)NC(=O)[C@H](CCCNC(=N)N)NC(=O)[C@H](C)NC(=O)[C@H](C)NC(=O)[C@H](CCC(N)=O)NC(=O)[C@H](CCC(=O)O)NC(=O)[C@H](CCC(=O)O)NC(=O)[C@H](CC(C)C)NC(=O)[C@H](Cc1ccc(O)cc1)NC(=O)[C@H](CO)NC(=O)[C@H](CO)NC(=O)[C@@H](NC(=O)[C@H](CC(=O)O)NC(=O)[C@H](CO)NC(=O)[C@@H](NC(=O)[C@H](Cc1ccccc1)NC(=O)[C@@H](NC(=O)CNC(=O)[C@H](CCC(=O)O)NC(=O)C(C)(C)NC(=O)[C@@H](N)Cc1c[nH]cn1)[C@@H](C)O)[C@@H](C)O)C(C)C)C(=O)N[C@@H](C)C(=O)N[C@@H](Cc1c[nH]c2ccccc12)C(=O)N[C@@H](CC(C)C)C(=O)N[C@H](C(=O)N[C@@H](CCCNC(=N)N)C(=O)NCC(=O)N[C@@H](CCCNC(=N)N)C(=O)NCC(=O)N[C@@H](CCCCNC(=O)COCCOCCNC(=O)COCCOCCNC(=O)COCCOCCNC(=O)COCCOCCNC(=O)COCCOCCNC(=O)COCCOCCNC(=O)[C@@H](N)CCCCNC(=O)[C@@H](N)CCCCNC(=O)CCCCCCCCCCCCCCCCCCC(=O)O)C(=O)NCC(=O)NCC(=O)N[C@@H](CO)C(=O)N[C@@H](CCCCNC(=O)COCCOCCNC(=O)COCCOCCNC(=O)COCCOCCNC(=O)COCCOCCNC(=O)COCCOCCNC(=O)COCCOCCNC(=O)[C@@H](N)CCCCNC(=O)[C@@H](N)CCCCNC(=O)CCCCCCCCCCCCCCCCCCC(=O)O)C(=O)O)C(C)C [Example 28] (H-H[Aib]EGTFTSDVSSYLEEQAAREFIAWLVRGRGK([AEEA-AEEA-AEEA-AEEA-AEEA-AEEA-εLys-εLys-C20 diacid])GGSK([AEEA-AEEA-AEEA-AEEA-AEEA-AEEA-εLys-εLys-C20 diacid])-OH; N-terminus and C-terminus assumed)	0.0034		
		CC[C@H](C)[C@H](NC(=O)[C@H](Cc1ccccc1)NC(=O)[C@H](CCC(=O)O)NC(=O)[C@H](CCCNC(=N)N)NC(=O)[C@H](C)NC(=O)[C@H](C)NC(=O)[C@H](CCC(N)=O)NC(=O)[C@H](CCC(=O)O)NC(=O)[C@H](CCC(=O)O)NC(=O)[C@H](CC(C)C)NC(=O)[C@H](Cc1ccc(O)cc1)NC(=O)[C@H](CO)NC(=O)[C@H](CO)NC(=O)[C@@H](NC(=O)[C@H](CC(=O)O)NC(=O)[C@H](CO)NC(=O)[C@@H](NC(=O)[C@H](Cc1ccccc1)NC(=O)[C@@H](NC(=O)CNC(=O)[C@H](CCC(=O)O)NC(=O)C(C)(C)NC(=O)[C@@H](N)Cc1c[nH]cn1)[C@@H](C)O)[C@@H](C)O)C(C)C)C(=O)N[C@@H](C)C(=O)N[C@@H](Cc1c[nH]c2ccccc12)C(=O)N[C@@H](CC(C)C)C(=O)N[C@H](C(=O)N[C@@H](CCCNC(=N)N)C(=O)NCC(=O)N[C@@H](CCCCNC(=O)COCCOCCNC(=O)COCCOCCNC(=O)CC[C@H](NC(=O)[C@H]1CC[C@H](CNC(=O)CCCCCCCCCCCCCCCCCCC(=O)O)CC1)C(=O)O)C(=O)NCC(=O)N1CCC[C@H]1C(=O)N[C@@H](C)C(=O)N[C@@H](CO)C(=O)N[C@@H](CCC(=O)O)C(=O)N[C@@H](CCCCNC(=O)COCCOCCNC(=O)COCCOCCNC(=O)CC[C@H](NC(=O)[C@H]1CC[C@H](CNC(=O)CCCCCCCCCCCCCCCCCCC(=O)O)CC1)C(=O)O)C(=O)O)C(C)C [Example 15] (H-H[Aib]EGTFTSDVSSYLEEQAAREFIAWLVRGK([AEEA-AEEA-γGlu-Trx-C20 diacid])GPASEK([AEEA-AEEA-γGlu-Trx-C20 diacid])-OH)	0.02	928	1.6
		CC[C@H](C)[C@H](NC(=O)[C@H](Cc1ccccc1)NC(=O)[C@H](CCC(=O)O)NC(=O)[C@H](CCCNC(=N)N)NC(=O)[C@H](C)NC(=O)[C@H](C)NC(=O)[C@H](CCC(N)=O)NC(=O)[C@H](CCC(=O)O)NC(=O)[C@H](CCC(=O)O)NC(=O)[C@H](CC(C)C)NC(=O)[C@H](Cc1ccc(O)cc1)NC(=O)[C@H](CO)NC(=O)[C@H](CO)NC(=O)[C@@H](NC(=O)[C@H](CC(=O)O)NC(=O)[C@H](CO)NC(=O)[C@@H](NC(=O)[C@H](Cc1ccccc1)NC(=O)[C@@H](NC(=O)CNC(=O)[C@H](CCC(=O)O)NC(=O)C(C)(C)NC(=O)[C@@H](N)Cc1c[nH]cn1)[C@@H](C)O)[C@@H](C)O)C(C)C)C(=O)N[C@@H](C)C(=O)N[C@@H](Cc1c[nH]c2ccccc12)C(=O)N[C@@H](CC(C)C)C(=O)N[C@H](C(=O)N[C@@H](CCCNC(=N)N)C(=O)NCC(=O)N[C@@H](CCCNC(=N)N)C(=O)NCC(=O)N[C@@H](CCCCNC(=O)CCC(=O)NCCCOCCOCCOCCCNC(=O)CC[C@H](NC(=O)C1CCN(C(=O)CCCCCCCCCCCCCCCCCCC(=O)O)CC1)C(=O)O)C(=O)NCC(=O)NCC(=O)N[C@@H](CO)C(=O)N[C@@H](CCCCNC(=O)CCC(=O)NCCCOCCOCCOCCCNC(=O)CC[C@H](NC(=O)C1CCN(C(=O)CCCCCCCCCCCCCCCCCCC(=O)O)CC1)C(=O)O)C(=O)O)C(C)C [Example 21] (H-H[Aib]EGTFTSDVSSYLEEQAAREFIAWLVRGRGK([Suc-X4])GGSK([Suc-X4])-OH; N-terminus and C-terminus assumed)	0.019	177	1.3
